The text below walks through data of patent US20050130989A1, “N-arylheteroaromatic products compositions containing them and use thereof” (Aventis Pharma S. A., priority 2003, published 2005).

One assay concerns the target T1, tubulin (Sus scrofa, UniProt P02550+P02554).
T1 construct: Tubulin is purified from pig brain according to published methods; from tissue; host or cells: pig brain
Kind of assay: Evaluation of the inhibition of tubulin polymerization (turbidimetry). Type of assay: biochemical, pig. Particulars: tubulin 10 μm (1 mg/ml), 37° C., turbidity at 350 nm; concentration that inhibits the rate of polymerization by 50%; read-out: Inhibition of tubulin polymerization IC 50 (μm). The method, then:
Tubulin is purified from pig brain according to published methods (Shelanski et al., 1973, Proc. Natl. Acad. Sci. USA, 70, 765-768. Weingarten et al., 1975, Proc. Natl. Acad. Sci. USA, 72, 1858-1862). Briefly, the brains are ground and centrifuged in an extraction buffer. The tubulin contained in the supernatant of the extract undergoes two successive cycles of polymerization at 37° C. and depolymerization at 4° C., before being separated from the MAPs (Microtubule Associated Proteins) by chromatography on a phosphocellulose P11 column (Whatman). The tubulin thus isolated is more than 95% pure. It is stored in a buffer known as RB/2 30% glycerol, the composition of which is 50 mM MES-NaOH [2-(N-morpholino)ethanesulfonic acid], pH 6.8; 0.25 mM MgCl2; 0.5 mM EGTA; 30% glycerol (v/v), 0.2 mM GTP (guanosine-5′-triphosphate).
The polymerization of tubulin to microtubules is monitored by turbidimetry as follows: the tubulin is adjusted to a concentration of 10 μm (1 mg/ml) in RB/2 30% glycerol buffer to which 1 mM GTP and 6 mM MgCl2 are added. The polymerization is triggered by an increase in temperature from 6° C. to 37° C. in a cuvette with an optical path length of 1 cm, placed in a UVIKON 931 spectrophotometer (Kontron) equipped with a thermostatically maintained cuvette holder. The increase in the turbidity of the solution is monitored at 350 nm.
The products are dissolved at 10 mM in DMSO and added at variable concentrations (0.5 to 10 μm) to the tubulin solution before polymerization. The IC50 value is defined as the concentration of product that inhibits the rate of polymerization by 50%.

The next assay deals with HCT116 cells. Kind of assay: Inhibition of proliferation of the human colon tumor line HCT116 ([14C]-thymidine incorporation). Type of assay: cell-based. The settings on record: Homo sapiens, HCT-116, 48 h, 48 hours at 37° C., read-out: Inhibition of HCT116 proliferation IC 50 (μm). On the procedure:
The proliferation of HCT116 cells is evaluated by measuring the incorporation of [^14C]-thymidine in the following manner. The HCT 116 cells (obtained from the ATCC) are cultured in a DMEM medium (Gibco) containing 10% fetal calf serum and antibiotics (1% penicillin, 1% streptomycin). To perform the proliferation test, the cells are inoculated in cytostar 96-well microplates (Amersham), at a rate of 5000 cells per well. [^14C]-thymidine (0.1 μCi/well) and the products to be evaluated are then added. Variable concentrations of products up to 10 μm are used; the DMSO (solvent used to dissolve the products) should not exceed 0.5% in the medium. 48 hours after incubation at 37° C., the radioactivity incorporated into the cells is measured by counting the plate in a TRI-LUX counter (Wallac). The IC50 is defined as the concentration of product that reduces the radioactivity by 50% compared with an untreated control. A product whose IC50 is less than 3 μm is considered cytotoxic.
(Dividing cells build labelled thymidine or BrdU into new DNA.)

Each structure is given as a SMILES string.

T1 sequence (P02550 whole entry): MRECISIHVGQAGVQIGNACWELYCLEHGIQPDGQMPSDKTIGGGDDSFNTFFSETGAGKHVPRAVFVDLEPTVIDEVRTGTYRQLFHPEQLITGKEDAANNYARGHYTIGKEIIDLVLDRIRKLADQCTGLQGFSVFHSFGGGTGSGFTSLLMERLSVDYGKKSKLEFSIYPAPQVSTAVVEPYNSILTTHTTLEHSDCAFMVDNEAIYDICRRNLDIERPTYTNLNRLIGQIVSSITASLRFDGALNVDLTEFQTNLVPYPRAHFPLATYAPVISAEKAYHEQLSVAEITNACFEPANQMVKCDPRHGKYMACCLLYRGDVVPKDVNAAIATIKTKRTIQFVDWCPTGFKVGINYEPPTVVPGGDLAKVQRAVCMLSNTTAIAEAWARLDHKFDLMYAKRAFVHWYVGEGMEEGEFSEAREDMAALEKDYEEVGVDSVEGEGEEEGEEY
T1 sequence (P02554 whole entry): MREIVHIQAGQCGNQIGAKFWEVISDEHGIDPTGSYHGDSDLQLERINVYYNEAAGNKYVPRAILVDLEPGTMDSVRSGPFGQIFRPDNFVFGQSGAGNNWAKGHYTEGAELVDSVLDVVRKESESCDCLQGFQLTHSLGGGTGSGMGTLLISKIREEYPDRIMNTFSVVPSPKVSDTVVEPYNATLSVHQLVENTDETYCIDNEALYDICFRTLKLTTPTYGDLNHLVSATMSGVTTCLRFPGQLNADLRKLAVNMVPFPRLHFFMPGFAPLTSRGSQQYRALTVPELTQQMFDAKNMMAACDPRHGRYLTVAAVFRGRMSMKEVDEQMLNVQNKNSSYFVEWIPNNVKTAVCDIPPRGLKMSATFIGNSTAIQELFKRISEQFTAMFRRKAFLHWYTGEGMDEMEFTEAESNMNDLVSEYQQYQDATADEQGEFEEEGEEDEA

With `Cc1cc(C(=O)N2CCN(c3ccc(F)cc3)CC2)n(-c2ccccc2)n1` [3/41], the IC50 on tubulin was 6.5 µM; with HCT116 cells it was 0.294 µM.

Regarding `Cc1cc(C(=O)N2CCN(c3ccccc3C)CC2)n(-c2ccccc2)n1` [3/42], the IC50 was 5 µM at tubulin and 0.085 µM with HCT116 cells.

As to `CCOc1ccccc1N1CCN(C(=O)c2cc(C)nn2-c2ccccc2)CC1` [3/43], the IC50 amounted to 9 µM on tubulin and 0.229 µM in the assay on HCT116 cells.

Take `Cc1cccc(-n2nc(C)cc2C(=O)N2CCN(c3ccccc3)CC2)c1` [3/44]: the IC50 on tubulin came out at 2 µM; in the assay on HCT116 cells it was 0.047 µM.

With `COc1ccccc1N1CCN(C(=O)c2cc(C)nn2-c2cccc(C)c2)CC1` [3/45], the IC50 at tubulin was determined as 3 µM; in the assay on HCT116 cells it was 0.073 µM.

In the case of `Cc1cccc(-n2nc(C)cc2C(=O)N2CCN(c3cccc(C(F)(F)F)c3)CC2)c1` [3/46], the IC50 on tubulin turned out to be 8 µM; in the assay with HCT116 cells it was 0.197 µM.

`Cc1cccc(-n2nc(C)cc2C(=O)N2CCN(c3ccc(F)cc3)CC2)c1` [3/47]: the IC50 on tubulin stood at 8 µM; in the assay on HCT116 cells, 0.312 µM.

`Cc1cccc(-n2nc(C)cc2C(=O)N2CCN(c3ccccc3C)CC2)c1` [3/48]: the results for the IC50 at tubulin and with HCT116 cells were 5 µM and 0.118 µM, respectively.

With `COc1cccc(N2CCN(C(=O)c3cc(C)nn3-c3cccc(C)c3)CC2)c1` [3/49], the IC50 was determined as 1 µM at tubulin and 0.0079 µM with HCT116 cells.

On to `Cc1cccc(N2CCN(C(=O)c3cc(C)nn3-c3cccc(C)c3)CC2)c1` [3/50], for which the IC50 at tubulin came to 1.5 µM; with HCT116 cells it was 0.0061 µM.

`CSc1ccccc1N1CCN(C(=O)c2cc(C)nn2-c2cccc(C)c2)CC1` [3/51]: the results for the IC50 on tubulin and in the assay with HCT116 cells were 2 µM and 0.037 µM, respectively.

As to `Cc1cccc(-n2nc(C)cc2C(=O)N2CCN(c3ccc(Cl)cc3)CC2)c1` [3/52], the IC50 on tubulin stood at 13 µM; in the assay on HCT116 cells, 0.256 µM.

Take `Cc1cccc(-n2nc(C)cc2C(=O)N2CCN(c3cc(Cl)ccc3C)CC2)c1` [3/53]: the IC50 on tubulin is 1.2 µM; with HCT116 cells, 0.052 µM.

In the case of `COc1ccc(Cl)cc1N1CCN(C(=O)c2cc(C)nn2-c2cccc(C)c2)CC1` [3/54], the IC50 on tubulin is 1 µM; in the assay with HCT116 cells, 0.117 µM.

As for `Cc1cccc(-n2nc(C)cc2C(=O)N2CCN(c3ccccc3C(F)(F)F)CC2)c1` [3/55], the IC50 on tubulin came to 5.5 µM; in the assay on HCT116 cells it was 1.35 µM.

Consider `Cc1cccc(-n2nc(C)cc2C(=O)N2CCN(c3ccc4c(c3)OCCO4)CC2)c1` [3/56], for which the IC50 on tubulin was determined as 5 µM; in the assay with HCT116 cells, 0.139 µM.

Take `Cc1cccc(N2CCN(C(=O)c3cc(C)nn3-c3ccc(F)cc3)CC2)c1` [3/57]: the IC50 stood at 1.4 µM on tubulin and 0.015 µM in the assay with HCT116 cells.

Consider `CSc1ccccc1N1CCN(C(=O)c2cc(C)nn2-c2ccc(F)cc2)CC1` [3/58], for which the IC50 on tubulin was determined as 4.5 µM; in the assay with HCT116 cells it was 3.94 µM.

Regarding `Cc1cc(C(=O)N2CCN(c3cccc4ccccc34)CC2)n(-c2ccc(F)cc2)n1` [3/59], the IC50 on tubulin came out at 5.7 µM; with HCT116 cells, 4.98 µM.

On to `COc1ccc(Cl)cc1N1CCN(C(=O)c2cc(C)nn2-c2ccc(F)cc2)CC1` [3/60], for which the IC50 at tubulin turned out to be 1.3 µM; with HCT116 cells it was 0.0086 µM.

For the compound `Cc1cc(C(=O)N2CCN(c3ccc4c(c3)OCCO4)CC2)n(-c2ccc(F)cc2)n1` [3/62], the IC50 was determined as 6 µM at tubulin and 0.071 µM with HCT116 cells.

As to `COc1cccc(N2CCN(C(=O)c3cc(C)nn3-c3ccc(F)cc3)CC2)c1` [3/63], the IC50 stood at 0.9 µM on tubulin and 0.019 µM in the assay with HCT116 cells.

`Cc1cc(C(=O)N2CCN(c3ccc(Cl)c(Cl)c3)CC2)n(-c2cccc(Cl)c2)n1` [3/65]: the IC50 on tubulin came out at 1.3 µM; with HCT116 cells it was 0.073 µM.

Take `Cc1cc(C(=O)N2CCN(c3ccc(C)c(C)c3)CC2)n(-c2cccc(Cl)c2)n1` [3/66]: the IC50 on tubulin is 2 µM; in the assay on HCT116 cells it was 0.073 µM.

Consider `Cc1cc(C(=O)N2CCN(c3ccccc3C)CC2)n(-c2cccc(Cl)c2)n1` [3/67], for which the IC50 on tubulin stood at 2.7 µM; in the assay with HCT116 cells, 0.127 µM.
